Key:
Assay in all cases: relative viability (nuclei count vs DMSO), 5 days (fraction); higher = more cells survive
[1] = compound: CC[C@@H](C)CNCC(=O)N1CCC2=C([C@@H]1COC3=CC=CC(=C3)C)C=CS2 [RU-SKI 43] + CS(=O)(=O)N1CCN(Cc2cc3nc(-c4cccc5[nH]ncc45)nc(N4CCOCC4)c3s2)CC1 [Pictilisib] (partner 1 µM)
In short: (§1)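 Each reported value is a median over duplicate plates. It expresses relative viability: treated-well nuclei count divided by vehicle-well nuclei count. Lung cancer cell lines in 1536-well plates were dosed by pin tool a day after seeding, alone with one drug or with a fixed anchor-drug dose plus five library-drug doses (not always all listed) in √10 steps, and nuclei were counted after 5 days.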

[2] = compound: CCc1c2c(nc3ccc(OC(=O)N4CCC(N5CCCCC5)CC4)cc13)-c1cc3c(c(=O)n1C2)COC(=O)[C@]3(O)CC [Irinotecan] + N=C(N)NC(=N)NCCc1ccccc1 [Phenformin] (partner 250 µM)
In short: as §1

[3] = compound: CCc1c2c(nc3ccc(OC(=O)N4CCC(N5CCCCC5)CC4)cc13)-c1cc3c(c(=O)n1C2)COC(=O)[C@]3(O)CC [Irinotecan] + O=C(c1cc(Cc2n[nH]c(=O)c3ccccc23)ccc1F)N1CCN(C(=O)C2CC2)CC1 [Olaparib] (partner 8 µM)
In short: as §1

[4] = compound: Cn1cc(-c2cnc3ccc4ccc(CS(=O)(=O)NCc5ccccn5)cc4c(=O)c3c2)cn1 [MK-8033] + C[C@@H](Oc1cc(-c2cnn(C3CCNCC3)c2)cnc1N)c1c(Cl)ccc(F)c1Cl [Crizotinib] (partner 1 µM)
In short: as §1

| Cell Line | relative viability ([1]; first compound 0.1 µM) | relative viability ([1]; first compound 0.3162 µM) | relative viability ([1]; first compound 1 µM) | relative viability ([1]; first compound 3.162 µM) | relative viability ([1]; first compound 10 µM) | relative viability ([2]; first compound 0.6325 µM) | relative viability ([2]; first compound 2 µM) | relative viability ([2]; first compound 6.325 µM) | relative viability ([2]; first compound 20 µM) | relative viability ([3]; first compound 0.6325 µM) | relative viability ([3]; first compound 2 µM) | relative viability ([3]; first compound 6.325 µM) | relative viability ([3]; first compound 20 µM) | relative viability ([4]; first compound 0.02 µM) | relative viability ([4]; first compound 0.06325 µM) | relative viability ([4]; first compound 0.2 µM) | relative viability ([4]; first compound 0.6325 µM) | relative viability ([4]; first compound 2 µM) |
| --- | --- | --- | --- | --- | --- | --- | --- | --- | --- | --- | --- | --- | --- | --- | --- | --- | --- | --- |
| NCI-H2228 | 0.306 | 0.375 | 0.42 | 0.51 | 0.285 | 0.311 | 0.347 | 0.336 | 0.27 | 0.496 | 0.486 | 0.451 | 0.486 | 0.373 | 0.372 | 0.508 | 0.387 | 0.362 |
| NCI-H2347 | 0.589 | 1.18 | 0.595 | 0.72 | 0.574 | 0.284 | 0.263 | 0.298 | 0.246 | 0.471 | 0.491 | 0.379 | 0.555 | 0.752 | 0.667 | 0.665 | 0.618 | 0.823 |
| NCI-H2405 | 0.393 | 0.34 | 0.436 | 0.472 | 0.333 |  | 0.392 | 0.309 | 0.279 |  | 0.495 | 0.256 | 0.0989 | 0.809 | 0.783 | 0.842 | 0.871 | 0.811 |
| NCI-H3122 | 0.644 | 0.543 | 0.641 | 0.559 | 0.578 | 0.364 | 0.341 | 0.235 | 0.088 | 0.217 | 0.201 | 0.16 | 0.14 | 0.335 | 0.249 | 0.311 | 0.272 | 0.286 |
| PC-3 [JPC-3] | 0.768 | 0.69 | 0.805 | 0.816 | 0.683 | 0.424 | 0.472 | 0.318 | 0.349 | 0.766 | 0.908 | 0.448 | 0.221 | 0.963 |  | 0.902 | 0.981 | 0.936 |
| PC-14 | 0.644 | 0.716 | 0.756 | 0.646 | 0.462 |  | 0.661 | 0.242 | 0.155 | 0.129 | 0.163 | 0.167 | 0.123 | 0.932 | 0.81 | 0.875 | 0.889 | 0.817 |
| RERF-LC-KJ | 0.535 | 0.529 | 0.61 | 0.548 | 0.476 | 0.47 | 0.325 | 0.345 | 0.246 | 0.806 | 0.56 | 0.38 | 0.243 | 0.867 | 0.849 | 0.769 | 0.825 | 0.79 |
| SK-LU-1 | 0.556 | 0.578 | 0.634 | 0.678 | 0.554 | 0.429 | 0.35 | 0.276 | 0.283 | 0.312 | 0.265 | 0.29 | 0.218 | 0.873 | 0.874 | 0.8 | 0.835 | 1.02 |
| SK-MES-1 | 0.34 | 0.332 | 0.366 | 0.444 | 0.336 | 0.582 | 0.51 | 0.264 | 0.191 | 0.364 | 0.293 | 0.325 | 0.255 | 0.96 | 0.959 | 0.919 | 1.01 | 0.992 |
| SW 1573 | 0.519 | 0.544 | 0.581 | 0.648 | 0.455 | 0.32 | 0.425 | 0.248 | 0.146 | 0.267 | 0.239 | 0.157 | 0.121 | 0.798 | 0.743 | 0.752 | 0.416 | 0.695 |
